Reference: patent EP0830890A1, “Surfactants for use in liquid/supercritical CO2” (AIR PRODUCTS AND CHEMICALS, INC., priority 1996, dated 1998)

Key:
Type in all cases: physicochemical
[1] = Solubility in CO2 by cloud point determination in a variable volume view cell; parameters: Pressure Describing Cloud Point Determinations For Surfactant/CO2 Concentrations / Pressure Describing Cloud Point Determinations For Surfactant/CO2Concentrations: unit not given here
Method: In the following examples, mixtures of acetylenic alcohols or diols and CO2 were prepared by adding the acetylenic alcohol or diol to a stainless steel variable volume view cell equiped with suitable relief devices, high pressure valves CO2 inlet and outlet and a sapphire window at one end. A high pressure syringe pump (High Pressure Products, HIP pump) was filled with liquid CO2 and used to quantitiatively add CO2 to the pressure vessel. The pressure vessel contained a magnetic stirrer and was stirred via a magnetic couple to a magnet located below the vessel.
A weighed amount of surfactant (0.5-10 weight %) was placed inside the cell chamber in front of the piston. The cell window was attached and 10 cc ? s of CO2, was added to the cell. The surfactant was mixed in the CO2 using a magnetic stirring bar. The cell was mounted in horizontally and then immersed in a water bath. After allowing the high pressure cell to attain thermal equilibrium the pressure within the cell was varied using a floating piston. The pressure was changed to monitor the cloud point as being indicative of insolubility. The operator viewed the floating piston through the sapphire window using a suitable optic device, the onset of insolubility was taken when the translucent solution changed to an orange/brown color due to the Tindall light scattering of the insoluble droplets. The onset of insolubility was checked several times by varying the pressure using the high pressure syringe pump.
A water bath was used to vary the temperature for each concentration. On completing the solubility studies at one concentration and one temperature series, a calibrated injector loop attached to the high pressure cell was filled with the surfactant via a syringe. Utilizing a six way valve to help inject this fixed amount of surfactant, the surfactant concentration within the high pressure cell was increased by a fixed increment. The solubility studies for this new CO2/surfactant concentration were measured at various temperatures in a similar manner to that previously described.

[2] = Interfacial tension of a PEG 600 drop in CO2/surfactant solution via pendant drop technique; conditions: for Interfacial Tension IFT: PEG (600) drop, 2 weight % Surfynol/CO2 solution
From the text: Interfacial activity can be monitored using the 'pendant drop' technique, ("Chemistry of Interfaces" M.J.Jaycock & Parfitt, John Wiley and Sons, New York p49-51). This method is utilized to measure the interfacial tension between a pendant drop and a continuous phase that surrounds the drop. When carbon dioxide is used as the continuous media, special high pressure equipment with sapphire view ports is required to maintain a solution of CO2 and surfactant, and to study the change in shape of the pendant drop for interfacial tension calculations. A general procedure for these high pressure phase behavior measurements may be found in Langmuir, vol. 10 1994, pg 3536-3541, by K. Harrison, K. P. Johnston, J. Goveas and E. A. O ? Rear.
Various ethoxylates of 2,4,7,9-tetramethyl-5-decyn-4,7-diol were used in the interfacial tension study. Table 3 gives the interfacial tension observed for ethoxylates of 2,4,7,9-tetramethyl-5-decyn-4,7-diol containing 20, 40, and 65 wt% ethylene oxide. The table also gives the interfacial tension of the polyethyleneglycol (PEG 600)drop within the pure CO2 media. […] It is interesting to note the actual reduction in interfacial tension. For a control PEG 600 drop at 2510 psi the interfacial tension was measured to be 3.39 dyne/cm (run #5in Table 3). […] This corresponds to lowering the interfacial tension by 0.54 dyne/cm, a 16% reduction. A surfactant/CO2 solution of 2 weight % (using the 40 wt% ethoxylated Surfynol surfactant) gave an interfacial tension of 1.57 dyne/cm. at a CO2 pressure of 4030 psi (run #33in Table 3). The corresponding PEG drop at 4093psi used as the control gave an interfacial tension of 1.92dyne/cm (run #18 in Table 3).

[3] = PEG (MW=600) uptake by surfactant/CO2 mixture (phase behavior, cloud point); conditions: Wt% Surfactant in CO2 0.897%
[4] = 2 weight % in CO2 at 2501 psi vs control PEG 600 drop at 2510 psi

C#CC(C)(O)CC(C)C (stereo not drawn) [3,5-dimethyl-1-hexyn-3-ol]
Pressure Describing Cloud Point Determinations For Surfactant/CO2 Concentrations ([1]; Surfactant Concn. in CO2 0.50 wt%, 35°C): 1480 | Pressure Describing Cloud Point Determinations For Surfactant/CO2 Concentrations ([1]; Surfactant Concn. in CO2 0.50 wt%, 45°C): 1800 | Pressure Describing Cloud Point Determinations For Surfactant/CO2 Concentrations ([1]; Surfactant Concn. in CO2 0.50 wt%, 55°C): 2200 | Pressure Describing Cloud Point Determinations For Surfactant/CO2 Concentrations ([1]; Surfactant Concn. in CO2 1.50 wt%, 35°C): 1530 | Pressure Describing Cloud Point Determinations For Surfactant/CO2 Concentrations ([1]; Surfactant Concn. in CO2 1.50 wt%, 45°C): 1900 | Pressure Describing Cloud Point Determinations For Surfactant/CO2 Concentrations ([1]; Surfactant Concn. in CO2 1.50 wt%, 55°C): 2260 | Pressure Describing Cloud Point Determinations For Surfactant/CO2 Concentrations ([1]; Surfactant Concn. in CO2 2.50 wt%, 35°C): 1500 | Pressure Describing Cloud Point Determinations For Surfactant/CO2 Concentrations ([1]; Surfactant Concn. in CO2 2.50 wt%, 45°C): 1860 | Pressure Describing Cloud Point Determinations For Surfactant/CO2 Concentrations ([1]; Surfactant Concn. in CO2 2.50 wt%, 55°C): 2210 | Pressure Describing Cloud Point Determinations For Surfactant/CO2 Concentrations ([1]; Surfactant Concn. in CO2 5.00 wt%, 35°C): 1380 | Pressure Describing Cloud Point Determinations For Surfactant/CO2 Concentrations ([1]; Surfactant Concn. in CO2 5.00 wt%, 45°C): 1770 | Pressure Describing Cloud Point Determinations For Surfactant/CO2 Concentrations ([1]; Surfactant Concn. in CO2 5.00 wt%, 55°C): 2120 | Pressure Describing Cloud Point Determinations For Surfactant/CO2 Concentrations ([1]; Surfactant Concn. in CO2 7.60 wt%, 35°C): 1280 | Pressure Describing Cloud Point Determinations For Surfactant/CO2 Concentrations ([1]; Surfactant Concn. in CO2 7.60 wt%, 45°C): 1680 | Pressure Describing Cloud Point Determinations For Surfactant/CO2 Concentrations ([1]; Surfactant Concn. in CO2 7.60 wt%, 55°C): 2030 | Pressure Describing Cloud Point Determinations For Surfactant/CO2 Concentrations ([1]; Surfactant Concn. in CO2 10.20 wt%, 35°C): 1200 | Pressure Describing Cloud Point Determinations For Surfactant/CO2 Concentrations ([1]; Surfactant Concn. in CO2 10.20 wt%, 45°C): 1590 | Pressure Describing Cloud Point Determinations For Surfactant/CO2 Concentrations ([1]; Surfactant Concn. in CO2 10.20 wt%, 55°C): 1950 | solubility levels by weight to CO2 ([1]; in CO2): 10.2 % by weight

Ethoxylated 2,4,7,9-Tetramethyl-5-decyn-4,7-diol [AP-420]
Pressure Describing Cloud Point Determinations For Surfactant/CO2Concentrations ([1]; Surfactant Concn. in CO2 1.3646 wt%, 25°C): 1410 | Pressure Describing Cloud Point Determinations For Surfactant/CO2Concentrations ([1]; Surfactant Concn. in CO2 1.3646 wt%, 35°C): 2040 | Pressure Describing Cloud Point Determinations For Surfactant/CO2Concentrations ([1]; Surfactant Concn. in CO2 1.3646 wt%, 60°C): 3060 | Pressure Describing Cloud Point Determinations For Surfactant/CO2Concentrations ([1]; Surfactant Concn. in CO2 2.6028 wt%, 35°C): 2710 | Pressure Describing Cloud Point Determinations For Surfactant/CO2Concentrations ([1]; Surfactant Concn. in CO2 2.6028 wt%, 60°C): 4040 | Pressure Describing Cloud Point Determinations For Surfactant/CO2Concentrations ([1]; Surfactant Concn. in CO2 2.6028 wt%, 65°C): 4330 | Pressure Describing Cloud Point Determinations For Surfactant/CO2Concentrations ([1]; Surfactant Concn. in CO2 3.2104 wt%, 35°C): 2990 | Pressure Describing Cloud Point Determinations For Surfactant/CO2Concentrations ([1]; Surfactant Concn. in CO2 3.2104 wt%, 60°C): 3950 | Pressure Describing Cloud Point Determinations For Surfactant/CO2Concentrations ([1]; Surfactant Concn. in CO2 3.2104 wt%, 65°C): 4330 | Pressure Describing Cloud Point Determinations For Surfactant/CO2Concentrations ([1]; Surfactant Concn. in CO2 3.8330 wt%, 25°C): 1870 | Pressure Describing Cloud Point Determinations For Surfactant/CO2Concentrations ([1]; Surfactant Concn. in CO2 3.8330 wt%, 45°C): 2860 | Pressure Describing Cloud Point Determinations For Surfactant/CO2Concentrations ([1]; Surfactant Concn. in CO2 3.8330 wt%, 65°C): 3770 | surfactant is soluble in CO2 ([1]; in CO2): up to 4 wt% | lowering the interfacial tension [2, 4]: 0.54 dyne/cm | reduction in interfacial tension [2, 4]: 16% | Interfacial Tension IFT ([2]; 1984 psi (137 bar)): 3.45 dyne/cm | Interfacial Tension IFT ([2]; 2140 psi (148 bar)): 3.05 dyne/cm | Interfacial Tension IFT ([2]; 2498 psi (172 bar)): 2.75 dyne/cm | Interfacial Tension IFT ([2]; 2501 psi (173 bar)): 2.85 dyne/cm | Interfacial Tension IFT ([2]; 3007 psi (207 bar)): 2.32 dyne/cm | Interfacial Tension IFT ([2]; 3574 psi (246 bar)): 1.83 dyne/cm

Ethoxylated 2,4,7,9-Tetramethyl-5-decyn-4,7-diol [AP-440]
Pressure Describing Cloud Point Determinations For Surfactant/CO2Concentrations ([1]; Surfactant Concn. in CO2 0.6159 wt%, 25°C): 1200 | Pressure Describing Cloud Point Determinations For Surfactant/CO2Concentrations ([1]; Surfactant Concn. in CO2 0.6159 wt%, 45°C): 1750 | Pressure Describing Cloud Point Determinations For Surfactant/CO2Concentrations ([1]; Surfactant Concn. in CO2 1.2484 wt%, 25°C): 1840 | Pressure Describing Cloud Point Determinations For Surfactant/CO2Concentrations ([1]; Surfactant Concn. in CO2 1.2484 wt%, 35°C): 2610 | Pressure Describing Cloud Point Determinations For Surfactant/CO2Concentrations ([1]; Surfactant Concn. in CO2 1.8749 wt%, 60°C): 3740 | Pressure Describing Cloud Point Determinations For Surfactant/CO2Concentrations ([1]; Surfactant Concn. in CO2 2.8386 wt%, 25°C): 2580 | Pressure Describing Cloud Point Determinations For Surfactant/CO2Concentrations ([1]; Surfactant Concn. in CO2 2.8386 wt%, 45°C): 4300 | Pressure Describing Cloud Point Determinations For Surfactant/CO2Concentrations ([1]; Surfactant Concn. in CO2 2.8386 wt%, 60°C): 4510 | Pressure Describing Cloud Point Determinations For Surfactant/CO2Concentrations ([1]; Surfactant Concn. in CO2 4.0446 wt%, 25°C): 2700 | Pressure Describing Cloud Point Determinations For Surfactant/CO2Concentrations ([1]; Surfactant Concn. in CO2 4.0446 wt%, 35°C): 3740 | Pressure Describing Cloud Point Determinations For Surfactant/CO2Concentrations ([1]; Surfactant Concn. in CO2 4.0446 wt%, 45°C): 4440 | Pressure Describing Cloud Point Determinations For Surfactant/CO2Concentrations ([1]; Surfactant Concn. in CO2 4.0446 wt%, 60°C): 4670 | reduction in interfacial tension ([2]; 2 weight % in CO2 at 4030 psi vs control PEG drop at 4093psi): 18.2% | Interfacial Tension IFT ([2]; 3146 psi (217 bar)): 2.04 dyne/cm | Interfacial Tension IFT ([2]; 3522 psi (243 bar)): 1.96 dyne/cm | Interfacial Tension IFT ([2]; 3536 psi (244 bar)): 1.93 dyne/cm | Interfacial Tension IFT ([2]; 4028 psi (278 bar)): 1.56 dyne/cm | Interfacial Tension IFT ([2]; 4030 psi (278 bar)): 1.57 dyne/cm | Interfacial Tension IFT ([2]; 4568 psi (315 bar)): 1.38 dyne/cm | Interfacial Tension IFT ([2]; 4592 psi (317 bar)): 1.35 dyne/cm | Wt% of PEG (MW=600) uptake ([3]; 4040 psi 25°C): 1.091% | Wt% of PEG (MW=600) uptake ([3]; 4550 psi 25°C): 1.360% | Wt% of PEG (MW=600) uptake ([3]; 5220 psi 25°C): 1.627%
